Laboratory results from BindingDB's records for doi:10.1016/j.chembiol.2016.06.016 (Massachusetts Institute of Technology, 2016).

Legend:
Cytochrome b [1] = biological target: Cytochrome b (Homo sapiens, UniProt P00156); test: Cytochrome b Enzyme Assay; conditions: pH 7.4; 25 °C
Method: (§1) Reaction plates were incubated at room temperature for 10 min before reading absorbance at 550 nm. Absolute IC50 values were calculated in GraphPad Prism 6.0.

Cytochrome b [2] = biological target: T1, Cytochrome b (Candida albicans, UniProt I2BJW5); test: Cytochrome b Enzyme Assay; conditions: pH 7.4; 25 °C
T1 sequence (I2BJW5 whole entry): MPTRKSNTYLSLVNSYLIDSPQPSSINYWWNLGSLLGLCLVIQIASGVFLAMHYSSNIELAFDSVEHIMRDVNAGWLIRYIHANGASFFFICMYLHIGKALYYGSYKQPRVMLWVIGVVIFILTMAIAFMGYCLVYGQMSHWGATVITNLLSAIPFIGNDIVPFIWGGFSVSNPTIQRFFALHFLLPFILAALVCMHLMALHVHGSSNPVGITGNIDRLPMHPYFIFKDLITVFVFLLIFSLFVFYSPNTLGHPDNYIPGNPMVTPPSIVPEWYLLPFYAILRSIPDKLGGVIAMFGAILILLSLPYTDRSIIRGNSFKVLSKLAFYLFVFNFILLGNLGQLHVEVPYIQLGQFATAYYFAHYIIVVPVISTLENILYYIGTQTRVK
Method: as §1

Cytochrome b (Homo sapiens, UniProt P00156), sequence (P00156 whole entry): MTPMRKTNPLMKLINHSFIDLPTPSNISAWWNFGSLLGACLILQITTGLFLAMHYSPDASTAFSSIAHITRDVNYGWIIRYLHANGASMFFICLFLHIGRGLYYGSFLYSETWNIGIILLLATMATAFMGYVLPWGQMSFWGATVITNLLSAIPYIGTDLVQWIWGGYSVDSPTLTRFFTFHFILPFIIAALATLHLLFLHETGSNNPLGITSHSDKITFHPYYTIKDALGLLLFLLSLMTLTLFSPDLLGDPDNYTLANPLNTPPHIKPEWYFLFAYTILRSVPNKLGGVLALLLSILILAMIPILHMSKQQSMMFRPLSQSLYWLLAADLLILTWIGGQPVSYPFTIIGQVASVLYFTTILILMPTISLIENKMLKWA

| Compound | IC50 (Cytochrome b [1]) [µM] | IC50 (Cytochrome b [2]) [µM] |
| --- | --- | --- |
| c1ccc(COc2cccc(-c3n[nH]c4ccccc34)c2)cc1 [Inz-46] | > 64 | > 64 |
| COC(=O)Cn1nc(-c2cccc(CCc3ccccc3)c2)c2ccccc21 [Inz-45] | 1.17 | 0.0663 |
| CNC(=O)Cn1nc(-c2ccccc2)c2ccccc21 [Inz-25] | > 64 | > 64 |
| COC(=O)Cc1nn(-c2ccccc2)c2ccccc12 [Inz-104] | > 64 | 17.6 |
| COC(=O)Cn1nc(-c2cc(OCCCC3CCCCC3)ccc2F)c2cccc(C)c21 [Inz-80] | 0.79 | 0.0388 |
| COC(=O)Cn1nc(-c2ccccc2)c2cccc(C)c21 [Inz-3] | 21.3 | 1.01 |
| c1ccc(-c2nn(Cc3cnccn3)c3ccccc23)cc1 [Inz-37] | > 64 | 5.42 |
| COC(=O)Cn1nc(-c2cccc(O)c2)c2ccccc21 [Inz-41] | > 64 | 44.1 |
| COC(=O)Cn1nc(-c2ccsc2)c2ccccc21 [Inz-13] | > 64 | 9.23 |
| Cn1cc(Cn2nc(-c3ccccc3)c3ccccc32)nn1 [Inz-35] | > 64 | > 64 |
| COC(=O)Cn1nc(-c2ccccc2)c2ccccc21 [Inz-1] | 45.3 | 8.09 |
| COC(=O)Cn1nc(-c2ccccc2F)c2ccccc21 [Inz-19] | 36 | 2.97 |
| CCCCCCC1C(=O)O[C@H](C)[C@H](NC(=O)c2cccc(NC=O)c2O)C(=O)O[C@@H](C)[C@@H]1OC(=O)CC(C)C (stereo partly drawn) [[(2R,3S,6S,7R)-3-[(3-formamido-2-hydroxybenzoyl)amino]-8-hexyl-2,6-dimethyl-4,9-dioxo-1,5-dioxonan-7-yl] 3-methylbutanoate] | 0.007 | 0.005 |
| Nc1ccc2c(-c3cc(C(F)(F)F)ccc3F)nn(Cc3cnccn3)c2c1 [Inz-100] | > 64 | 5.48 |
| CNc1ccc2c(-c3cc(C(F)(F)F)ccc3F)nn(Cc3cnccn3)c2c1 [Inz-103] | > 64 | 2.13 |
| COC(=O)Cn1nc(-c2cccc(OCc3ccccc3)c2F)c2ccccc21 [Inz-69] | > 64 | 3.27 |
| COC(=O)CNc1ccccc1Oc1ccccc1 [Inz-86] | > 64 | > 64 |

| Compound | IC50 (Cytochrome b [1]) [µM] | IC50 (Cytochrome b [2]) [µM] |
| --- | --- | --- |
| COc1cccc2c(-c3cc(C(F)(F)F)ccc3F)nn(Cc3cnccn3)c12 [Inz-95] | 15.2 | 0.437 |
| Cn1nnc(Cn2nc(-c3ccccc3)c3ccccc32)n1 [Inz-34] | > 64 | 22.6 |
| COC(=O)Cn1nc(-c2cccc(OCC(C)C)c2)c2ccccc21 [Inz-54] | 9.23 | 0.344 |
| Cn1nc(-c2cccc(OCc3ccccc3)c2)c2ccccc21 [Inz-44] | > 64 | > 64 |
| COC(=O)Cn1ncc2ccccc21 [Inz-49] | > 64 | > 64 |
| COC(=O)Cn1nc(-c2cccc(OCCN(C(C)C)C(C)C)c2)c2ccccc21 [Inz-67] | 19.3 | 2.4 |
| COC(=O)Cn1nc(-c2cc(C(F)(F)F)ccc2F)c2cccc(C)c21 [Inz-4] | 1.04 | 0.026 |
| COC(=O)Cn1nc(-c2cccs2)c2ccccc21 [Inz-73] | > 64 | 15.1 |
| COC(=O)Cn1nc(-c2cccc(OCCC3CCCCC3)c2)c2ccccc21 [Inz-64] | 3.23 | 0.3 |
| COC(=O)Cn1nc(-c2cccnc2)c2ccccc21 [Inz-14] | > 64 | > 64 |
| Cc1cc(Cn2nc(-c3ccccc3)c3ccccc32)on1 [Inz-31] | > 64 | > 64 |
| CN(O)C(=O)Cn1nc(-c2ccccc2)c2ccccc21 [Inz-87] | > 64 | > 64 |
| Cn1nnc(Cn2nc(-c3cc(OCCCC4CCCCC4)ccc3F)c3ccccc32)n1 [Inz-82] | 12.3 | 0.614 |
| COC(=O)Cn1nc(-c2cc(C(F)(F)F)ccc2F)c2cc(C(F)(F)F)ccc21 [Inz-21] | > 64 | > 64 |
| COC(=O)Cn1nc(-c2cccc(OCCCC3CCCCC3)c2)c2ccccc21 [Inz-76] | 5.46 | 1.8 |
| Cc1cccc2c(-c3cc(OCCCC4CCCCC4)ccc3F)nn(Cc3nnn(C)n3)c12 [Inz-84] | 2.92 | 0.154 |

More lines, now with the values ahead:

| IC50 (Cytochrome b [1]) [µM] | IC50 (Cytochrome b [2]) [µM] | Compound |
| --- | --- | --- |
| > 64 | 2.36 | COC(=O)Cn1nc(-c2c(F)cccc2F)c2ccccc21 [Inz-59] |
| > 64 | > 64 | CS(=O)(=O)N(c1ccc2c(-c3cc(C(F)(F)F)ccc3F)nn(Cc3cnccn3)c2c1)S(C)(=O)=O [Inz-102] |
| > 64 | 17.9 | c1ccc(-c2nn(Cc3nnco3)c3ccccc23)cc1 [Inz-72] |
| > 64 | 10.1 | COC(=O)Cn1nc(-c2cccc(C#N)c2)c2ccccc21 [Inz-11] |
| 9.97 | 0.714 | COC(=O)Cn1nc(-c2cccc(Oc3ccccc3)c2)c2ccccc21 [Inz-7] |
| > 64 | 22.9 | COC(=O)Cn1nc(-c2ccccc2OC)c2ccccc21 [Inz-16] |
| 2.43 | 0.129 | COC(=O)Cn1nc(-c2cc(OCCCC3CCCCC3)ccc2F)c2ccccc21 [Inz-81] |
| > 64 | 16.6 | COC(=O)Cn1nc(-c2ccc(F)cc2F)c2ccccc21 [Inz-71] |
| > 64 | 1.43 | COC(=O)Cn1nc(-c2cccc(F)c2F)c2ccccc21 [Inz-60] |
| > 64 | > 64 | O=C(O)Cn1nc(-c2cccc(OCc3ccccc3)c2)c2ccccc21 [Inz-47] |
| > 64 | > 64 | O=C(O)Cn1nc(-c2ccccc2)c2ccccc21 [Inz-24] |
| > 64 | 1.22 | Cn1nnc(Cn2nc(-c3cc(C(F)(F)F)ccc3F)c3ccccc32)n1 [Inz-83] |
| > 64 | 35.2 | COC(=O)Cn1nc(-c2cccc(OCCN(C)C)c2)c2ccccc21 [Inz-63] |
| > 64 | > 64 | Cc1nc(Cn2nc(-c3ccccc3)c3ccccc32)no1 [Inz-77] |
| 1.66 | 0.0352 | COC(=O)Cn1nc(-c2cc(OCc3ccccc3)ccc2F)c2ccccc21 [Inz-68] |
| > 64 | 7.24 | COC(=O)Cn1nc(-c2cccc(OCc3ccccc3)c2)c2ccccc21 [Inz-42] |
| > 64 | > 64 | N#Cc1ncccc1Cn1nc(-c2ccccc2)c2ccccc21 [Inz-91] |
| > 64 | 14.8 | c1ccc(-c2nn(Cc3ncon3)c3ccccc23)cc1 [Inz-78] |
| > 64 | > 64 | COC(=O)Cn1ccc(-c2cccc(OCc3ccccc3)c2)n1 [Inz-48] |
| > 64 | > 64 | Brc1cccnc1Cn1nc(-c2ccccc2)c2ccccc21 [Inz-90] |
| 4.77 | 0.156 | COC(=O)Cn1nc(-c2cccc(OCCC(C)C)c2)c2ccccc21 [Inz-57] |

| IC50 (Cytochrome b [1]) [µM] | IC50 (Cytochrome b [2]) [µM] | Compound |
| --- | --- | --- |
| > 64 | 6.07 | COC(=O)Cn1nc(-c2cccc([N+](=O)[O-])c2)c2ccccc21 [Inz-12] |
| > 64 | > 64 | c1ccc(-c2nn(Cc3cncs3)c3ccccc23)cc1 [Inz-29] |
| > 64 | 62.4 | COC(=O)Cn1nc(-c2ccccn2)c2ccccc21 [Inz-15] |
| > 64 | 13.8 | CCN(CC)CCOc1cccc(-c2nn(CC(=O)OC)c3ccccc23)c1 [Inz-65] |
| > 64 | > 64 | COC(=O)Cn1nc(-c2ccccc2OCc2ccccc2)c2ccccc21 [Inz-55] |
| > 64 | 1.08 | COC(=O)Cn1nc(-c2cccc(OCc3ccccc3)c2C)c2ccccc21 [Inz-66] |
| > 64 | 3.37 | COC(=O)Cn1nc(-c2ccccc2C)c2ccccc21 [Inz-17] |
| > 64 | 5.41 | COC(=O)Cn1nc(-c2ccccc2Cl)c2ccccc21 [Inz-18] |
| 6.51 | 0.289 | Cc1cccc2c(-c3cc(C(F)(F)F)ccc3F)nn(Cc3nnn(C)n3)c12 [Inz-5] |
| > 64 | > 64 | c1ccc(-c2nn(Cc3ncccn3)c3ccccc23)cc1 [Inz-36] |
| > 64 | > 64 | FC(F)Cn1nc(-c2ccccc2)c2ccccc21 [Inz-89] |
| > 64 | > 64 | COC(=O)Cn1nc(-c2c(C)cccc2C)c2ccccc21 [Inz-58] |
| > 64 | 0.891 | COC(=O)Cn1nc(-c2cc(F)ccc2F)c2ccccc21 [Inz-61] |
| 1.88 | 3.79 | O=C1C(=O)c2ccccc2C(O)=C1C1CCC(c2ccc(Cl)cc2)CC1 (stereo not given) [3-[4-(4-chlorophenyl)cyclohexyl]-4-hydroxynaphthalene-1,2-dione] |
| > 64 | > 64 | Cc1nnc(Cn2nc(-c3ccccc3)c3ccccc32)o1 [Inz-32] |
| > 64 | > 64 | CS(=O)(=O)Cn1nc(-c2ccccc2)c2ccccc21 [Inz-27] |
| > 64 | 20.4 | Fc1ccc(C(F)(F)F)cc1-c1nn(Cc2cnccn2)c2ccncc12 [Inz-98] |
| > 64 | 17.7 | Fc1ccc(C(F)(F)F)cc1-c1nn(Cc2cnccn2)c2cccnc12 [Inz-99] |
| > 64 | > 64 | COC(=O)Cn1nc(-c2ccccc2C#N)c2ccccc21 [Inz-20] |
| > 64 | > 64 | c1ccc(-c2nn(Cc3ccccn3)c3ccccc23)cc1 [Inz-85] |
| > 64 | 50.5 | COC(=O)Cn1nc(-c2ccccc2C(F)(F)F)c2ccccc21 [Inz-51] |
